Measurements as given in publication PMC10486429, “Investigations Using Albumin Binders to Modify the Tissue Distribution Profile of Radiopharmaceuticals Exemplified with Folate Radioconjugates” (Cancers, 2023).

How the values were obtained:
[1] = target: T1, mouse serum albumin (MSA) in mouse plasma (Mus musculus, UniProt P07724); assay: Ultrafiltration albumin-binding assay of 177Lu-RedFols, mouse plasma; conditions: for Relative albumin-binding affinity: mouse blood plasma, inverse B50 ratio, normalized to the respective (6R or 6S) RedFol-1, set as 1.0; for Albumin-bound fraction: undiluted mouse blood plasma
T1 construct: tissue Rockland Immunochemicals, Inc. Lot No. 32321; host or cells: mouse blood plasma, undiluted and diluted in PBS
Procedure: (§1) S11. Relative Albumin-Binding Properties of 177Lu-RedFols
human blood plasma was determined and compared.
Switzerland; HSA: ⁓800 µM), respectively. An ultrafiltration method was applied accord-
ples at 37 °C for 30 min.
unbound) fractions of each sample. The inserts of the filter devices were inverted and
were presented as average of 3 independent experiments.

[2] = target: human serum albumin (HSA) in human plasma (Homo sapiens, UniProt P02768); assay: Ultrafiltration albumin-binding assay of 177Lu-RedFols, human plasma; conditions: for Relative albumin-binding affinity: human blood plasma, inverse B50 ratio, normalized to the respective (6R or 6S) RedFol-1, set as 1.0; for Albumin-bound fraction: undiluted human blood plasma
Procedure: An ultrafiltration method was applied according to a previously published procedure (Supplementary Materials Section S11) that was different from the one reported for the ^177Lu-DOTA-ALBs to prevent non-specific binding to the filter units. Briefly, the albumin-bound fraction was determined at different molar concentration ratios of serum albumin relative to the ^177Lu-labeled RedFols using a blood plasma/PBS dilution series and constant amounts of the respective ^177Lu-labeled folate conjugate (0.3 MBq; 0.006 nmol). The albumin-bound fraction was separated from the free (albumin-unbound) fraction of each sample using Amicon centrifugal filters (cut-off of 10 kDa; Merck Millipore, Carrigtwohill, Ireland). The inserts of the filter devices were inverted and centrifuged to recover the albumin-bound fraction, whereas filter-bound activity was considered as free (albumin-unbound) folate radioconjugate. The activity of the different fractions was measured using a γ-counter (Perkin Elmer, Wallac Wizard 1480, Waltham, MA, USA), and the proportion of albumin-bound radioconjugate was set in relation to the total activity measured. The data were analyzed in analogy to those of ^177Lu-DOTA-ALBs (Section 2.1.3). The relative albumin-binding affinity was assessed by calculating the inverse ratio of the B50 value of each 6R-5-MTHF-based folate radioconjugate to the B50 value of [^177Lu]Lu-6R-RedFol-1 (set as 1.0) and of each 6S-5-MTHF-based folate radioconjugate to the B50 value of [^177Lu]Lu-6S-RedFol-1 (set as 1.0). The results were presented as average ± SD of n = 3 independent experiments. […]
as §1
Purpose: The affinity of the folate radioconjugates to serum albumin in mouse and human blood plasma was determined and compared.
Methods: The albumin-binding affinity of the 177Lu-RedFols was assessed using mouse plasma (Rockland Immunochemicals, Inc., Pottstown, PA, USA, Lot N: 32321; MSA: ⁓550 µM) and human plasma (Stiftung Blutspende SRK Aargau-Solothurn, Aarau, Switzerland; HSA: ⁓800 µM), respectively. An ultrafiltration method was applied accord-ing to a previously published procedure that was different from the one reported for the 177Lu-DOTA-ALBs to avoid non-specific binding to the filter units.
The folate radioconjugates (50 MBq/nmol, ~300 kBq, 6 pmol in 15 µL) were added to samples of mouse and human blood plasma (150 µL), followed by incubation of the sam-ples at 37 °C for 30 min. The samples were loaded on Amicon centrifugal filters (cut-off of 10 kDa; Merck Millipore, Carrigtwohill, Ireland) followed by centrifugation (14000 rcf, 30 min, 4 °C) to allow the separation of the serum albumin-bound from the free (albumin-unbound) fractions of each sample. The inserts of the filter devices were inverted and centrifuged at 200 rcf for 3 min to recover the albumin-bound fraction. The activity of the albumin-bound fraction as well as the activity in the filtrate and in the filter unit were measured separately in a γ-counter (Perkin Elmer, Wallac Wizard 1480, Waltham, MA, USA). The percentage of radioconjugate bound to mouse and human albumin, respec-

Sequence of human serum albumin (HSA) in human plasma (P02768 25-609): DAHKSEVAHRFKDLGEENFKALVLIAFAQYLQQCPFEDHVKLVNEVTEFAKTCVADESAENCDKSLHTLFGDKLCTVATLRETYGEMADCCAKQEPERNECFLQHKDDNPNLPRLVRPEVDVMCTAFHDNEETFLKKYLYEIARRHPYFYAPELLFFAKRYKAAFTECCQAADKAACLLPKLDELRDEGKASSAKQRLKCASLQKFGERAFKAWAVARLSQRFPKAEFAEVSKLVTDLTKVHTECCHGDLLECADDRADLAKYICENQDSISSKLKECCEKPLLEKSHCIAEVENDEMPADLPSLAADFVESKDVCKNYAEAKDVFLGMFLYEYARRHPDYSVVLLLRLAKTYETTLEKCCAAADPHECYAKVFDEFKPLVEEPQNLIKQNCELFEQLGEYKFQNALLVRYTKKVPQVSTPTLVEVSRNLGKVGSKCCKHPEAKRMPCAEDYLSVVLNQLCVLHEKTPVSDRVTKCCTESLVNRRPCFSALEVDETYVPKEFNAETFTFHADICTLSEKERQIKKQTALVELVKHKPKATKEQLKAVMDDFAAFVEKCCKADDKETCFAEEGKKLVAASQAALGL
T1 sequence (P07724 25-608): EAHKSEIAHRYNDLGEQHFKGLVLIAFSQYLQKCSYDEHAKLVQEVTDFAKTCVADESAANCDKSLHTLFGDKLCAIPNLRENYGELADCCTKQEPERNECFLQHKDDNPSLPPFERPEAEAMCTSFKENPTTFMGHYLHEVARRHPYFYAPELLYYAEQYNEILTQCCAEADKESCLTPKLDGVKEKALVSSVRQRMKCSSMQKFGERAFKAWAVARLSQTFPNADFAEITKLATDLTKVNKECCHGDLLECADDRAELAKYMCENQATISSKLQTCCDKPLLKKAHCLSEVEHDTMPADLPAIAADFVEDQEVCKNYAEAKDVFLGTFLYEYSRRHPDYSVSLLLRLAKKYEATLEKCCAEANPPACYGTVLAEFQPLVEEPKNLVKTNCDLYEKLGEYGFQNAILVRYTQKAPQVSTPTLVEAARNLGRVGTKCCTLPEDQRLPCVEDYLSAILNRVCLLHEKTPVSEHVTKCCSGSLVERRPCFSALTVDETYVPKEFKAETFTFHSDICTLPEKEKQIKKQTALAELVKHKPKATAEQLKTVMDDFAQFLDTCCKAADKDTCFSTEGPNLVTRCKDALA

SMILES: CN1c2c(nc(N)[nH]c2=O)NC[C@H]1CNc1ccc(C(=O)N[C@@H](CCC(=O)N[C@@H](CCCCNC(=O)CN2CCN(CC(=O)O)CCN(CC(=O)O)CCN(CC(=O)O)CC2)C(=O)N[C@@H](CCCCNC(=O)CCCCc2ccc(I)cc2)C(=O)O)C(=O)O)cc1 [[^177Lu]Lu-6R-RedFol-24, metal not drawn]
- Relative albumin-binding affinity [1]: 0.2
- Albumin-bound fraction [1]: 73%
- Relative albumin-binding affinity [2]: 0.5
- Albumin-bound fraction [2]: 94%

SMILES: CN1c2c(nc(N)[nH]c2=O)NCC1CNc1ccc(C(=O)NC(CCC(=O)NC(CCCCNC(=O)CN2CCN(CC(=O)[O-])CCN(CC(=O)[O-])CCN(CC(=O)[O-])CC2)C(=O)NC(CCCCNC(=O)c2ccc(CNC(=O)CCCc3ccc(I)cc3)cc2)C(=O)O)C(=O)O)cc1.[177Lu+3] (stereo not drawn) [[^177Lu]Lu-6S-RedFol-3]
- Relative albumin-binding affinity [1]: 3.5
- Albumin-bound fraction [1]: 97%
- Relative albumin-binding affinity [2]: 1.1
- Albumin-bound fraction [2]: 97%

SMILES: CN1c2c(nc(N)[nH]c2=O)NC[C@H]1CNc1ccc(C(=O)N[C@@H](CCC(=O)N[C@@H](CCCCNC(=O)CN2CCN(CC(=O)O)CCN(CC(=O)O)CCN(CC(=O)O)CC2)C(=O)N[C@@H](CCCCNC(=O)c2ccc(CNC(=O)CCCc3ccc(I)cc3)cc2)C(=O)O)C(=O)O)cc1 [[^177Lu]Lu-6R-RedFol-3, metal not drawn]
- Relative albumin-binding affinity [1]: 8.4
- Albumin-bound fraction [1]: 97%
- Relative albumin-binding affinity [2]: 1.1
- Albumin-bound fraction [2]: 97%

SMILES: CN1c2c(nc(N)[nH]c2=O)NCC1CNc1ccc(C(=O)NC(CCC(=O)NC(CCCCNC(=O)CN2CCN(CC(=O)[O-])CCN(CC(=O)[O-])CCN(CC(=O)[O-])CC2)C(=O)NC(CCCCNC(=O)c2ccc(CNC(=O)CCCCc3ccc(I)cc3)cc2)C(=O)O)C(=O)O)cc1.[177Lu+3] (stereo not drawn) [[^177Lu]Lu-6S-RedFol-25]
- Relative albumin-binding affinity [1]: 0.7
- Albumin-bound fraction [1]: 92%
- Relative albumin-binding affinity [2]: 0.2
- Albumin-bound fraction [2]: 91%

SMILES: CN1c2c(nc(N)[nH]c2=O)NC[C@H]1CNc1ccc(C(=O)N[C@@H](CCC(=O)N[C@@H](CCCCNC(=O)CN2CCN(CC(=O)O)CCN(CC(=O)O)CCN(CC(=O)O)CC2)C(=O)N[C@@H](CCCCNC(=O)CCCc2ccc(I)cc2)C(=O)O)C(=O)O)cc1 [[^177Lu]Lu-6R-RedFol-1, metal not drawn]
- Relative albumin-binding affinity [1]: 1.0
- Albumin-bound fraction [1]: 93%
- Relative albumin-binding affinity [2]: 1.0
- Albumin-bound fraction [2]: 98%

SMILES: CN1c2c(nc(N)[nH]c2=O)NCC1CNc1ccc(C(=O)NC(CCC(=O)NC(CCCCNC(=O)CN2CCN(CC(=O)[O-])CCN(CC(=O)[O-])CCN(CC(=O)[O-])CC2)C(=O)NC(CCCCNC(=O)CCCc2ccc(I)cc2)C(=O)O)C(=O)O)cc1.[177Lu+3] (stereo not drawn) [[^177Lu]Lu-6S-RedFol-1]
- Relative albumin-binding affinity [1]: 1.0
- Albumin-bound fraction [1]: 93%
- Relative albumin-binding affinity [2]: 1.0
- Albumin-bound fraction [2]: 98%

SMILES: CN1c2c(nc(N)[nH]c2=O)NC[C@H]1CNc1ccc(C(=O)N[C@@H](CCC(=O)N[C@@H](CCCCNC(=O)CN2CCN(CC(=O)O)CCN(CC(=O)O)CCN(CC(=O)O)CC2)C(=O)N[C@@H](CCCCNC(=O)c2ccc(CNC(=O)CCCCc3ccc(I)cc3)cc2)C(=O)O)C(=O)O)cc1 [[^177Lu]Lu-6R-RedFol-25, metal not drawn]
- Relative albumin-binding affinity [1]: 1.4
- Albumin-bound fraction [1]: 94%
- Relative albumin-binding affinity [2]: 0.5
- Albumin-bound fraction [2]: 96%
